{"source": "patent US20260234187A1", "about": "“ANTIMICROBIAL PEPTIDES” (MATERIAS S.R.L., priority 2020, published 2026)", "key": {"[1]": {"tested_on": "Listeria monocytogenes LM2", "format": "cell-based", "conditions": "LM2, 6 h", "protocol": "The bactericidal activity of the RiLK1 peptide was assessed against both Gram positive (Listeria monocytogenes LM2 and Staphilococcus aureus) and Gram negative (Salmonella typhimurium and Escherichia coli) pathogenic bacteria. The assessment of the concentration of the two peptides capable of inhibiting 50% of bacterial growth (IC50) was performed by the broth microdilution assay as described in Wang H X and Ng TB (2003, Peptides 24:969-972). The standard deviations and the IC50s for triplicate incubations of each plate were determined using GraphPad Prism version 6.00 (Graph-Pad Software, La Jolla California USA). All experimental conditions investigated used the plate count method to estimate the bactericidal activity of the peptides. Specifically, the numbers of colonies grown on agar plates seeded with the bacterial suspensions in the absence or presence of the individual peptide dilutions were counted and compared. The standard deviations of the triplicate incubations of each plate were determined using statistical software. A control stock suspension was prepared in which 10^3 CFUs of L. monocytogenes were inoculated in 10 ml of Half Fraser Broth and serial dilutions (100 to 0.01 μM) of the suspension were performed. […]"}, "E. coli [2]": {"tested_on": "E. coli", "format": "cell-based, Escherichia coli", "protocol": "(§1) The evaluation of the Minimum Bactericidal Concentration (MBC), i.e., the lowest concentration of antimicrobial agent capable of 99.9% inhibition of bacterial growth on plates, was carried out as described in Bílikova et al, (2015, Peptides 68:190-196). […] It should be noted that the peptide object of the present invention is more powerful and efficient than the peptide IDR-1018-K6 (described in patent application WO2019012158) against the pathogenic bacteria L. monocytogenes and S. typhimurium, with bactericidal concentration values 4-fold and 7-fold lower, respectively, compared to those shown by IDR-1018-K6."}, "L. monocytogenes (LM2)": {"tested_on": "L. monocytogenes (LM2)", "format": "cell-based, Listeria monocytogenes", "protocol": "as §1"}, "Staphylococcus": {"tested_on": "Staphylococcus", "test": "bactericidal activity at 15 μM, CFU versus control", "format": "cell-based", "protocol": "(§2) The bactericidal activity of further AMP peptides according to the invention, in particular of the RiLK31 peptide (RLRWVKIWKK, SEQ ID NO:31) and the RiLK3 peptide (RLRWVRIWRR, SEQ ID NO:3), was tested. The bactericidal activity was expressed as a percentage of viable cells in terms of CFU (Colony Forming Units) in a bacterial sample exposed to each peptide compared to those in a control bacterial sample in the absence of the peptide. All tests were carried out with the same peptide concentration, corresponding to 15 μM."}, "Salmonella": {"tested_on": "Salmonella", "test": "bactericidal activity at 15 μM, CFU versus control", "format": "cell-based", "protocol": "as §2"}, "E. coli [3]": {"tested_on": "E. coli", "test": "bactericidal activity at 15 μM, CFU versus control", "format": "cell-based", "protocol": "as §2"}, "Listeria": {"tested_on": "Listeria", "test": "bactericidal activity at 15 μM, CFU versus control", "format": "cell-based", "protocol": "as §2"}, "[4]": {"format": "physicochemical", "conditions": "50 μM in 1M NaCl, 25° C.", "protocol": "The stability analysis of the RiLK1 peptide in the presence of a high concentration saline solution (1M NaCl) was carried out by reverse phase (RP) HPLC chromatography, performed on a μBondpack C18 column. 50 μM RiLK1 peptide was dissolved in 1 M NaCl and the samples were incubated at 25° C. and monitored for 9 days."}, "[5]": {"tested_on": "Candida albicans (ATCC 14053)", "test": "activity against yeast, plate count, MFC", "format": "cell-based", "conditions": "C. albicans; 25 μM, 6 h", "protocol": "The inhibitory activity of the RiLK1 peptide was determined against the yeast Candida albicans. A stock culture was prepared in which 10^5 CFUs of C. albicans were inoculated in 10 ml of buffered peptone water. A reference strain (ATCC 14053) was used for this species. The culture was incubated for 6 h at 37° C. with the RiLK1 peptide at 25 μM concentrations. At the same time, control samples were incubated without adding the peptide. 100 μl of the samples thus prepared were seeded on DG18 plates (Dichloran 18% Glycerol Agar-ISO 21527-2) and incubated at 25° C. for 7 days. All experimental conditions investigated used the plate count method to estimate the antimycotic activity of the peptide. Specifically, the numbers of colonies grown on agar plates seeded with the cultures in the absence or presence of the individual peptide dilutions were counted and compared. The standard deviations of the triplicate incubations of each plate were determined using statistical software. The evaluation of the Minimum Fungicidal Concentration (MFC), i.e., the lowest concentration of antifungal agent capable of 99.9% inhibition of fungal growth on plates, was carried out as described in Bílikova et al, (2015, Peptides 68:190-196)."}, "physchem": {"test": "physchem", "format": "physicochemical", "conditions": "L or D configuration; ultrapure water, DMSO and DPBS", "protocol": "The tests were carried out in three of the most common solvents used in biological applications such as: ultrapure water; DPBS (Dulbecco's Phosphate Buffered Saline), i.e., a saline buffer containing potassium chloride (KCl), monobasic potassium phosphate (KH2PO4), sodium chloride (NaCl) and dibasic sodium phosphate (Na2HPO4-7H2O) and finally in an organic solvent such as dimethylsulfoxide (DMSO)."}}, "note": "pIC50: −log10 of the molar value. Like-named read-outs stand apart in the source and are kept apart here. Where no end group is shown, it is not given here.", "data": [{"substance": "RLKWVRIWRR-NH2 [RiLK1, RLKWVRIWRR]", "values": [{"measurement": "pIC50", "setting": "[1]", "result": 6.34}, {"measurement": "MBC", "setting": "E. coli [2]", "result": 2, "unit": "µM"}, {"measurement": "bactericidal concentration lower compared to IDR-1018-K6", "setting": "L. monocytogenes (LM2); L. monocytogenes", "result": 4, "unit": "fold"}, {"measurement": "MBC", "setting": "L. monocytogenes (LM2); L. monocytogenes (LM2)", "result": 2, "unit": "µM"}, {"measurement": "bactericidal activity", "setting": "Staphylococcus", "result": 96.9, "unit": "%^"}, {"measurement": "bactericidal activity", "setting": "Salmonella", "result": 100, "unit": "%"}, {"measurement": "bactericidal activity", "setting": "E. coli [3]", "result": 100, "unit": "%"}, {"measurement": "bactericidal activity", "setting": "Listeria", "result": 99.5, "unit": "%"}, {"measurement": "yield", "setting": "[4]; 5 hours", "result": "+6%"}, {"measurement": "yield", "setting": "[4]; 24 hours", "result": "+6%"}, {"measurement": "yield", "setting": "[4]; 29 hours", "result": "+3%"}, {"measurement": "yield", "setting": "[4]; 48 hours", "result": "−1.5", "unit": "%^"}, {"measurement": "yield", "setting": "[4]; 53 hours", "result": "+4.3%^"}, {"measurement": "yield", "setting": "[4]; 6 days", "result": "−6.3", "unit": "%^"}, {"measurement": "yield", "setting": "[4]; 9 days", "result": "−8", "unit": "%"}, {"measurement": "Drop Log CFU/ml", "setting": "[5]", "result": 5, "unit": "Log CFU/ml"}, {"measurement": "post-treatment decrease in the fungal load", "setting": "[5]", "result": 5, "unit": "Log"}, {"measurement": "maximum concentration completely dissolved", "setting": "physchem", "result": "≤ 10", "unit": "mg/mL"}]}]}
